The results in this text go back to paper PMC10475017, “Design, synthesis, computational study and cytotoxic evaluation of some new quinazoline derivatives containing pyrimidine moiety” (Scientific Reports, 2023).

Data set [1] deals with A549 cell line. Kind of data set: Annexin V/PI apoptosis detection by flow cytometry. The note with it: 72 h. In kind it is cell-based, human. On the procedure: Annexin V was applied to detect the phosphatidyl serin, which moved to outer membrane during apoptosis, and PI was used to distinguish live and dead cells.
After the incubation time, AnnexinV/PI staining using eBioscience™ Annexin V apoptosis detection kit (Invitrogen). The cells were gently harvested and washed once with 1X phosphate buffered saline (PBS), and once with 1000 μL 1X binding buffer. In the next step, the cells were suspended in 100 μL binding buffer containing 5 μL fluorescein isothiocyanate conjugated (FITC) Annexin V for 15 min and 5 μL Propodium Iodide (PI) solution. The cells were then acquired on BD FACS Calibur™ flow cytometry (BD Biosciences, San Jose, CA, USA) and apoptosis rates were calculated as the sum of early apoptosis and late apoptosis using Flowjo software.
(In general: Flow cytometry measures light scatter and fluorescence of single cells or particles in a stream.)

The subject of data set [2] is A549 cell line. Kind of data set: Cell cycle analysis by PI flow cytometry. The data set is classed as cell-based, human. The settings on record: 72 h; for cell cycle S population: untreated cells 4.46%. On the procedure: For this purpose, A549 cells were treated with two concentrations of 6n (10 and 15 μM) for 72 h (Fig. 6). […] A slight decrease in the G2/M population was also observed.
The effect of 6n was also assessed according to our previous protocol. Briefly, 1 × 10^5 A549 cells were seeded in a 24-well plate in […] complete cell culture media and after 24 h, were treated with two concentrations of 6n (10 and 15 μM). After 72 h, the cells were harvested and washed twice with cold 1X pbs and stabilized with cold ethanol (70%) in drop-wised manner while vortexing. After keeping one day in the freezer, the fixed cells were washed with 1X pbs and treated with a mixture of ribonuclease (10 µg/ml) (Sigma-Aldrich, Germany) to remove RNA, and Propidium Iodide (PI, 20 µg/ml) (Sigma-Aldrich, Germany) to stain DNA. The cells were acquired on BD FACS Calibur™ flow cytometry (BD Biosciences, San Jose, CA, USA). The data were analyzed with FlowJo software packages version 10.

In general, melting point refers to the temperature, or range, at which the solid turns liquid. `Cn1c(=O)cc(Cl)n(Cc2nc3ccc(Br)cc3c(=O)n2-c2cccc(Cl)c2)c1=O` [Compound 6d, 1-((6-Bromo-3-(3-Chlorophenyl)-4-Oxo-3,4-Dihydroquinazolin-2-Yl)Methyl)-6-Chloro-3-Methylpyrimidine-2,4(1H,3H)-Dione] showed a melting point of 259 to 260 °C.
As to `Cn1c(=O)cc(Cl)n(Cc2nc3ccc(Br)cc3c(=O)n2-c2cccc(F)c2)c1=O` [Compound 6c, 1-((6-Bromo-3-(3-Fluorophenyl)-4-Oxo-3,4-Dihydroquinazolin-2-Yl)Methyl)-6-Chloro-3-Methylpyrimidine-2,4(1H,3H)-Dione], the melting point lay within 243 to 244 °C.
`Cn1c(=O)cc(Cl)n(Cc2nc3ccc(Br)cc3c(=O)n2-c2cccc(C#N)c2)c1=O` [Compound 6b, 3-(6-Bromo-2-((6-Chloro-3-Methyl-2,4-Dioxo-3,4-Dihydropyrimidin-1(2H)-Yl)Methyl)-4-Oxoquinazolin-3(4H)-Yl) Benzonitrile] displayed a melting point of 255 to 257 °C.
For `Cn1c(=O)cc(Cl)n(Cc2nc3ccc(Br)cc3c(=O)n2-c2ccc(F)c(Cl)c2)c1=O` [Compound 6n, 1-((6-Bromo-3-(3-Chloro-4-Fluorophenyl)-4-Oxo-3,4-Dihydroquinazolin-2-Yl)Methyl)-6-Chloro-3-Methylpyrimidine-2,4(1H,3H)-Dione], in data set [1] (5 µM), the “early apoptotic cells Q3 (Av pos/PI neg)” value came out at 2.61% and the “late apoptotic cells Q2 (Av pos/PI pos)” value was found to be 21.2%. In addition, the “apoptotic death (sum of early and late apoptosis)” value in data set [1] (15 µM) stood at 65.08%. The “induction of apoptosis (in words)” value in data set [1] (5, 10, 15 µM) was “significantly induced apoptotic death in the dose dependent manner”. Besides, the “cell cycle S population” value in data set [2] (10 μM) was 8.91%. Moreover, in data set [2] (15 μM), the “cell cycle S population” value amounted to 11.6%. The “effect on cell cycle (in words)” value in data set [2] (10 and 15 μM) was “could induce arrest at S-phase”.
`Cn1c(=O)cc(Cl)n(Cc2nc3ccc(Br)cc3c(=O)n2-c2ccccc2)c1=O` [Compound 6a, 1-((6-Bromo-4-Oxo-3-Phenyl-3,4-Dihydroquinazolin-2-Yl)Methyl)-6-Chloro-3-Methylpyrimidine-2,4(1H,3H)-Dione] returned a melting point of 246 to 248 °C.
Consider `Cn1c(=O)cc(Cl)n(Cc2nc3ccc(Br)cc3c(=O)n2-c2cccc(Br)c2)c1=O` [Compound 6e, 1-((6-Bromo-3-(3-Bromophenyl)-4-Oxo-3,4-Dihydroquinazolin-2-Yl)Methyl)-6-Chloro-3-Methylpyrimidine-2,4(1H,3H)-Dione], for which the melting point lay within 251 to 252 °C.
`Cn1c(=O)cc(Cl)n(Cc2nc3ccc(Br)cc3c(=O)n2-c2ccc(F)cc2)c1=O` [Compound 6f., 1-((6-Bromo-3-(4-Fluorophenyl)-4-Oxo-3,4-Dihydroquinazolin-2-Yl)Methyl)-6-Chloro-3-Methylpyrimidine-2,4(1H,3H)-Dione]: the melting point was 240 to 242 °C.
`Cn1c(=O)cc(Cl)n(Cc2nc3ccc(Br)cc3c(=O)n2-c2ccc(Cl)cc2)c1=O` [Compound 6g, 1-((6-Bromo-3-(4-Chlorophenyl)-4-Oxo-3,4-Dihydroquinazolin-2-Yl)Methyl)-6-Chloro-3-Methylpyrimidine-2,4(1H,3H)-Dione] displayed a melting point of 225 to 226 °C.
